Laboratory results from US20230372301A1, “TREATMENTS WITH NIROGACESTAT” (SpringWorks Therapeutics, Inc., priority 2022, published 2023).

How the values were obtained:
[1] = system: progressing desmoid tumors/aggressive fibromatosis (DT/AF); assay type: in vivo
Excerpt: A Phase 3, double-blind, placebo-controlled study is being conducted to determine the efficacy and safety of nirogacestat dihydrobromide in participants with progressing desmoid tumors. A Phase 1 solid tumor study provided preliminary efficacy (Messersmith, W., et al., “A Phase I, dose-finding study in patients with advanced solid malignancies of the oral y-secretase inhibitor PF-03084014,” Clin. Cancer Res., 21:60-7 (2015)), including long-term durable responses and safety of nirogacestat in desmoid participants (Villalobos, V. M., et al., “Long-Term Follow-Up of Desmoid Fibromatosis Treated with PF-03084014, an Oral Gamma Secretase Inhibitor, Ann. Surg. Oncol., 25:768-75 (2018)). These encouraging results lead to a Phase 2 study in participants with progressing desmoid tumors (Kummar, S., et al., “Clinical Activity of the γ-Secretase Inhibitor PF-03084014 in Adults with Desmoid Tumors (Aggressive Fibromatosis), J. Clin. Oncol., 35:1561-69 (2017)). […] Importantly, participants in the responder group had failed previous systemic therapies (imatinib or sorafenib) indicating a need for alterative therapeutic options for this patient population.
Overall Design: The Phase 3 study will be a multi-center, randomized, double-blind, placebo-controlled, event-driven to compare the efficacy, safety, and tolerability of nirogacestat and placebo in adult participants with progressing DT/AF. This study will consist of 2 phases, a double-blind and an optional open-label extension (OLE) phase.
Following disease progression (confirmed by central review using RECIST v1.1), or completion of the double-blind phase (once the required number of events have been observed and the primary PFS analysis has been completed), participants' treatment assignment will be unblinded, and if eligible, participants will have the option to enroll in the optional OLE phase.
Type of Participant and Disease Characteristics: • 1. Participant has DT/AF that has progressed by ≥20% as measured by RECIST v1.1 within the 12-month period prior to first dose of study treatment. • 2. Participant has: • a. Newly diagnosed, measurable progressing DT/AF that is not amenable to surgical resection or radiation therapy; • OR • b. Recurrent, progressing DT/AF following CR to initial therapy; • OR • c. Preexisting DT/AF and has previously received therapy and the residual tumor has progressed. • 3. Participant agrees to provide archival or new tumor tissue for confirmation of disease. • 4. If participant was previously treated with an investigational therapy for treatment of DT/AF, participant must have completed prior therapy at least 28 days prior to signing informed consent. All toxicities from prior therapy must resolve to Grade 1 or baseline. • 5. Participants who are receiving nonsteroidal anti-inflammatory drugs (NSAIDs) as treatment for conditions other than DT/AF must be receiving them prior to the observed progression (inclusion criteria 1) for: • a. Chronic scheduled daily use (defined as stable for 28 days prior to signing informed consent); or • b. Occasional use (defined as ≤3 days per week) for the treatment of pain or as an anti-inflammatory in licensed conditions such as headache, arthritis, etc. • c. Participant has an Eastern Cooperative Oncology Group (ECOG) performance status ≤2 at screening. • 6. Participant has adequate organ and bone marrow function as defined by the following Screening laboratory values: • a. Absolute neutrophil count ≥1500/μL; • b. Platelets ≥100×10^3/μL; • c. Hemoglobin ≥9 g/dL; • d. Total bilirubin ≤1.5×upper limit of normal (ULN) (isolated bilirubin >1.5×ULN is acceptable if bilirubin is fractionated and direct bilirubin <35%); • e. Aspartate aminotransferase (AST) (serum glutamic oxaloacetic transaminase)/alanine aminotransferase (ALT) (serum glutamic pyruvate transaminase)≤2×ULN; and • f. […] Participant can swallow tablets and has no gastrointestinal conditions affecting absorption. […]

[2] = system: progressing desmoid tumors; conditions: Phase 2, participants with progressing desmoid tumors; cited from earlier work
[3] = 150 mg twice daily, positive change indicates improvement
[4] = change from Baseline in EORTC, P: <0.001

CCC[C@H](N[C@H]1CCc2cc(F)cc(F)c2C1)C(=O)Nc1cn(C(C)(C)CNCC(C)(C)C)cn1 (single isomer, unassigned) [nirogacestat]
mean change from Baseline in EORTC, Global health status/Quality of life (GHS/QoL) [1, 3]: 4.493
mean change from Baseline in EORTC, QLQ30 Role Functioning [1, 3]: 11.133
mean change from Baseline in EORTC, QLQC30 Physical Functioning [1, 3]: 8.523
LS mean difference (between nirogacestat and placebo), Global health status/Quality of life (GHS/QoL) ([1]; change from Baseline in EORTC, P: 0.007): 10.515
LS mean difference (between nirogacestat and placebo), QLQ30 Role Functioning [1, 4]: 16.714
LS mean difference (between nirogacestat and placebo), QLQC30 Physical Functioning [1, 4]: 13.154
most frequent adverse reactions requiring a dose reduction or interruption ([1]; in vivo): diarrhea, rash maculo-papular, hypophosphatemia, stomatitis, folliculitis, and fatigue
progression-free survival (PFS), hazard ratio (HR) ([1]; nirogacestat 150 mg twice daily over placebo, <0.001): 0.29
objective response rate (ORR) ([1]; nirogacestat 150 mg twice daily versus placebo, p<0.001): statistically significant improvements
four different quality of life (QoL) assessments and patient-reported outcomes (PROs) ([1]; nirogacestat 150 mg twice daily versus placebo, p<0.001 for each): statistically significant improvements
participants progressing while on therapy [2]: no participants progressing while on therapy
response rate [2]: 29%
tumor shrinkage as measured by magnetic resonance imaging (MRI) [2]: significant tumor shrinkage
